The target of experiment [1] is T1, Kv1.5 potassium channel (Homo sapiens, UniProt P22460).
T1 construct: expressed in transfected cells
The experiment is described as follows: Electrophysiological studies, whole cell patch clamp, inhibition of Kv1.5 potassium currents in Chinese hamster ovary cells. The format is cell-based. As to conditions: CHO cells. Here is the method:
Electrophysiological recordings of potassium currents in Chinese hamster ovary cells stably expressing the gene construct for the Kv1.5 potassium channel subunit were performed using the whole cell configuration of the patch clamp technique (Hamill et al., Pflugers Archiv 391:85, 1981). Cell lines expressing Kv1.5 were prepared using standard techniques known to those skilled in the art. Cells were plated on glass coverslips at a density of 2×10^4 cells/coverslip and used within 24-48 hours. Solutions used for electrophysiological recordings were as follows. Extracellular bathing solutions contained (in mM) 132 NaCl, 5.4 KCl, 1.8 CaCl2, 0.8 MgCl2, 10 HEPES, 5 glucose at pH 7.3. Electrode pipette solutions for measuring Kv1.5 contain (in mM) 100 KCl 5 NaCl, 2 MgCl2, 5 mM EGTA, 10 mM HEPES and 5 glucose at pH 7.4, 295 mOsm. The coverslips were placed in a small chamber (volume ~200 μl) on the mechanical stage of an inverted microscope and perfused (2 ml/min) with extracellular recording solution. Drug was applied using a series of narrow-bore glass capillary tubes (inner diameter ~100 μm) positioned approximately 200 μm from the cell.
In general terms: In patch-clamp work, channel activity is measured electrically.

For experiment [2], the target named is T2, human Kv1.5 (Homo sapiens, UniProt P22460).
T2 construct: expressed in transfected cells
T2 sequence (P22460 whole entry): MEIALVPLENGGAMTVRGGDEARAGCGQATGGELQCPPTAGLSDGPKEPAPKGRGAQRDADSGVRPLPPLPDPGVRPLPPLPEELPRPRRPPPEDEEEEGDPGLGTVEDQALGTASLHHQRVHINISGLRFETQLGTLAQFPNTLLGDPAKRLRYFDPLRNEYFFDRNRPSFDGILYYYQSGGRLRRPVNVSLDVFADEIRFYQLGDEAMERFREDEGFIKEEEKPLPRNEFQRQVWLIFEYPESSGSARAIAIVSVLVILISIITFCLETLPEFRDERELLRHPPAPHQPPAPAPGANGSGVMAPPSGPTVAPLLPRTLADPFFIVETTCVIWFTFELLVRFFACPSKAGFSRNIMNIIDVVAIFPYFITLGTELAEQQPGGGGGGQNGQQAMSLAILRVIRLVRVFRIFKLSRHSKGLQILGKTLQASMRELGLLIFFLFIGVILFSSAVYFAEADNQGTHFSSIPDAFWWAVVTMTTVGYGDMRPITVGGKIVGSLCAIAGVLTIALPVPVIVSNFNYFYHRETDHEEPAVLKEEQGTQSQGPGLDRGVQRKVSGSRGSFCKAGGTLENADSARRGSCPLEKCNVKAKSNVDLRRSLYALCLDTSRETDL
The experiment is described as follows: 86Rb efflux assay, inhibition of 86Rb efflux through Kv1.5 potassium channels expressed in CHO cells. The format is cell-based. As to conditions: Kv1.5 in CHO cells, 70 mM KCl, 1 minute. Here is the method: Cells stably transfected with cDNA for human Kv1.5 (in pcDNA3 vector) were grown as confluent monolayers in 96 well tissue culture plates in MEM alpha with 10% heat inactivated fetal bovine serum and 400 μg/ml G418. Cells were incubated overnight in growth media containing 1 μCi/ml ^86 Rb to permit intracellular uptake of the isotope. At the end of the incubation period, the ^86 Rb solution was aspirated and the cells washed three times with Earls Balanced Salt Solution (EBSS) which contained (in mM) 132 NaCl 5.4 KCl, 1.8 CaCl2, 0.8 mM MgCl2 10 mM HEPES and 5 mM glucose. The cells were then preincubated for 10 minutes at room temperature in 100 μl/well of EBSS or EBSS containing test compounds. At the end of this period the wells were aspirated and to each well was then added 100 μl of a modified EBSS solution containing 70 mM KCl (NaCl replaced by KCl) and the compound to be tested. The high KCl concentration was utilized to depolarize the cells to membrane potentials that would activate Kv1.5 channels. After a 1 minute incubation in 70 mM KCl EBSS plus test compound, the solution was removed and placed into the appropriate well of a 96 well counting plate for analysis. Finally 100 μl of 0.1% sodium docecyl sulfate in EBSS was added to each well to lyse the cells. The lysate was taken for analysis to determine final cell content of ^86 Rb. Samples were counted in a Wallac Microbeta liquid scintillation counter by Cerenkov emission. Efflux was expressed as a percentage of the initial cell content of ^86 Rb.
The testing results of selective compounds from Tables 1A-C using this assay are reported in Table 2 (flux) as the potency for inhibition of ^86 Rb efflux through Kv1.5 potassium channels expressed in CHO cells by compounds of the invention.

Consider 17 compounds from US6333337A, “Potassium channel inhibitors” (ICAgen, Inc., priority 1999, dated 2001).

Bounds are passed on as bounds.

T1 sequence (P22460 whole entry): as above

As a reminder, the IC50 is the concentration at which inhibition is half-maximal. High values mean weaker potency, low ones greater potency. Consider `CCc1ccc(S(=O)(=O)N[C@H]2c3cc(NCc4ccc(OC(F)(F)F)cc4)ccc3CC[C@@H]2O)cc1` (relative stereo) [Entry 60, trans-N1-(4-ethylphenylsulfonyl)-N7-(4-trifluoromethoxybenzyl)-1,7-diamino-1,2,3,4-tetrahydro-2-naphthalenol], for which the IC50 in experiment [1] was 500 nM; in experiment [2], more than 50000 nM.
For `CCc1ccc(S(=O)(=O)NC2c3cc(NC(=O)c4cccc(OC)c4)ccc3CCC2O)cc1` (stereo not drawn) [Entry 1], the 50% inhibitory concentration (IC50) in experiment [1] turned out to be 250 nM; in experiment [2], 6800 nM.
`CCc1ccc(S(=O)(=O)NC2c3cc(NC(=O)c4ccccc4OC)ccc3CCC2O)cc1` (stereo not drawn) [Entry 13]: the values for the IC50 in experiment [1] and in experiment [2] were 400 nM and more than 50000 nM, respectively.
The matching figures for `CCCCc1ccc(S(=O)(=O)NC2c3cc(NC(=O)c4cccc(OC)c4)ccc3CCC2O)cc1` (stereo not drawn) [Entry 19]: 50 nM and 2900 nM.
With `CCc1ccc(S(=O)(=O)NC2c3cc(NC(=O)C4Cc5ccccc5CN4CC)ccc3CCC2O)cc1` (stereo not drawn) [Entry 24], the 50% inhibitory concentration (IC50) in experiment [1] is 600 nM; in experiment [2], 5900 nM.
`CCc1ccc(S(=O)(=O)NC2c3cc(NC(=O)C#Cc4ccccc4)ccc3CCC2O)cc1` (stereo not drawn) [Entry 28]: the half-inhibitory concentration (IC50) in experiment [1] was 90 nM; in experiment [2] it was 5900 nM.
Turning to `CCc1ccc(C(=O)Nc2ccc3c(c2)C(NS(=O)(=O)c2ccc(C(C)C)cc2)C(O)CC3)cc1` (stereo not drawn) [Entry 40], in experiment [2], the half-maximal inhibitory concentration (IC50) was 9000 nM.
`COc1cccc(C(=O)Nc2ccc3c(c2)C(NS(=O)(=O)Cc2ccccc2)C(O)CC3)c1` (stereo not drawn) [Entry 70]: the half-inhibitory concentration (IC50) is 2100 nM in experiment [1] and 29000 nM in experiment [2].
On to `CCCc1ccc(S(=O)(=O)NC2c3cc(NC(=O)c4ccc([N+](=O)[O-])cc4)ccc3CCC2O)cc1` (stereo not drawn) [Entry 85], for which, in experiment [2], the half-inhibitory concentration (IC50) came out at 46000 nM.
In experiment [2], `Cc1cccc(C(=O)Nc2ccc3c(c2)C(NS(=O)(=O)c2cccc(C)c2)C(O)CC3)c1` (stereo not drawn) [Entry 97] showed a concentration for half-maximal inhibition (IC50) of 39000 nM.
Compound `CCc1ccc(S(=O)(=O)NC2c3cc(NC(=O)c4cccs4)ccc3CCC2O)cc1` (stereo not drawn) [Entry 103] gave an IC50 in experiment [2] of 20000 nM.
With `COc1cc(C)c(S(=O)(=O)NC2c3cc(NC(=O)c4ccccc4)ccc3CCC2O)c(C)c1C` (stereo not drawn) [Entry 110], 12000 nM corresponded to half-maximal inhibition in experiment [2] (IC50).
In experiment [1], `CCc1ccc(S(=O)(=O)NC2c3cc(N(Cc4cccnc4)C(=O)C4CC4)ccc3CCC2O)cc1` (stereo not drawn) [Entry 123] came in with a 50% inhibitory concentration (IC50) of 100 nM.
The same measure, in the same setting: to `CCc1ccc(S(=O)(=O)N(Cc2cccnc2)C2c3cc(NC(=O)c4cccc(OC)c4)ccc3CCC2O)cc1` (stereo not drawn) [Entry 132] belongs 500 nM; to `CCc1ccc(S(=O)(=O)NC2c3cc(NC(=O)C4CCCN4Cc4cccc(Cl)c4)ccc3CCC2O)cc1` (stereo not drawn) [Entry 135], 100 nM; to `CCc1ccc(S(=O)(=O)NC2c3cc(NC(=O)c4cccc(OC)c4)ccc3CCC2O)cc1` (stereo not drawn) [Entry 158], 600 nM.
On to `CCc1ccc(S(=O)(=O)NC2c3cc(N(Cc4cccnc4)C(=O)C4CC4)ccc3CCC2O)cc1` (stereo not drawn) [Entry 162], for which, in experiment [1], the midpoint of inhibition, the IC50, lay at 200 nM.
